In brackets after ≈: the same amount, converted by molar mass.
Columns and labels:
[1] = test system: Enterococcus faecalis (Isolate ID ATCC 29212); test: Antibacterial activity, MIC, E. faecalis; type: cell-based; details: Enterococcus faecalis, ATCC29212; Gram positive strain; broth microdilution or agar dilution
Procedure, shortened: (§1)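 Per CLSI standard M7-A7, minimum inhibitory concentrations were measured by agar dilution or by broth microdilution.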

[2] = test system: Staphylococcus aureus (Isolate ID ATCC 29213); test: Antibacterial activity, MIC, S. aureus; type: cell-based; details: Staphylococcus aureus, ATCC29213, Gram positive strain; broth microdilution or agar dilution
Procedure, shortened: as §1

physchem = details: kinetic from dmso stock
Procedure, shortened: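 DMSO doubling dilutions were diluted twenty-fold into 100 mM citrate (pH 4), PBS (pH 7.4) or carbonate-bicarbonate (pH 9). After 24 h equilibration at room temperature, absorbance was read at 620 nm. The reported value is the highest concentration without measurable precipitate.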

[3] = test system: Streptococcus pyogenes (Isolate ID ATCC 51339); test: Antibacterial activity, MIC, S. pyogenes; type: cell-based; details: Streptococcus pyogenes, ATCC51339, Gram positive strain; broth microdilution or agar dilution
Procedure, shortened: as §1

[4] = test system: Haemophilus influenzae (Isolate ID ATCC 49247); test: Antibacterial activity, MIC, H. influenzae; type: cell-based; details: Haemophilus influenzae, ATCC49247; Gram negative strain; broth microdilution or agar dilution
Procedure, shortened: as §1

[5] = pH 7.4, aqueous buffer, Max Solubility
[6] = pH 7.4, aqueous buffer, Solubility (pH 7.4)
[7] = pH 7.4, aqueous buffer, Solubility Range
[8] = pH 7.4, aqueous buffer, Solubility Range (maximum solubility)
[9] = pH 9, aqueous buffer, Max Solubility
[10] = pH 9, aqueous buffer, Solubility Range (maximum solubility)

Compound | MIC [1] [µg/mL] | MIC [2] [µg/mL] | solubility at 24 h (physchem; [5]) [µg/mL] | solubility at 24 h (physchem; [6]) [µg/mL] | solubility at 24 h (physchem; [7]) [µg/mL] | solubility at 24 h (physchem; [8]) [µg/mL] | MIC [3] [µg/mL] | MIC [4] [µg/mL] | solubility at 24 h (physchem; [9]) [µg/mL] | solubility at 24 h (physchem; [10]) [µg/mL]
CCNC(=O)Nc1nc2cc(-c3cnc(N4CCC(CC)(C(=O)O)CC4)nc3)ccc2s1 [Compound 113] | 0.25 to 1 (≈ 0.55 to 2.2 µM) | 1 to 16 (≈ 2.2 to 35.2 µM) | 100 (≈ 220 µM) | 100 (≈ 220 µM) | 12.5 to 400 (≈ 27.5 to 880 µM) | 12.5 to 400 (≈ 27.5 to 880 µM) | 1 to 16 (≈ 2.2 to 35.2 µM) | > 16 |  | 
CCNC(=O)Nc1nc2cc(-c3cnc(N4CCC(O)C(C)(C(=O)OC)C4)nc3)cc(-c3ccccn3)c2s1 (centres unmarked) [Compound 172] | ≤ 0.25 | 1 to 16 (≈ 1.83 to 29.2 µM) |  | 12.5 (≈ 22.8 µM) | 12.5 to 400 (≈ 22.8 to 730 µM) |  | ≤ 0.25 | 1 to 16 (≈ 1.83 to 29.2 µM) |  | 
CCNC(=O)Nc1nc2cc(-c3cnc(N4CCC(C)(C(=O)O)CC4)nc3)cc(CN(C)c3ncccn3)c2s1 [Compound 147, 1-[5-[2-(ethylcarbamoylamino)-7-[[methyl(pyrimidin-2-yl)amino]methyl]-1,3-benzothiazol-5-yl]pyrimidin-2-yl]-4-methyl-piperidine-4-carboxylic acid] | ≤ 0.25 | 1 to 16 (≈ 1.78 to 28.5 µM) |  | ≥ 800 | > 800 |  | 0.25 to 1 (≈ 0.445 to 1.78 µM) | 1 to 16 (≈ 1.78 to 28.5 µM) |  | 
CCNC(=O)Nc1nc2cc(-c3cnc(N4CCC(C)(C(=O)O)CC4)nc3)cc(-c3cn(C)nn3)c2s1 [Compound 50, 1-[5-[2-(ethylcarbamoylamino)-7-(1-methyltriazol-4-yl)-1,3-benzothiazol-5-yl]pyrimidin-2-yl]-4-methyl-piperidine-4-carboxylic acid] | 0.25 to 1 (≈ 0.479 to 1.92 µM) | > 16 | ≥ 800 | ≥ 800 | > 800 | > 800 | 0.25 to 1 (≈ 0.479 to 1.92 µM) | 1 to 16 (≈ 1.92 to 30.7 µM) |  | 
CCNC(=O)Nc1nc2cc(-c3cnc(N4CCC(CC)(C(=O)O)CC4)nc3)cc(N3CCOCC3)c2s1 [Compound 114, 4-ethyl-1-[5-[2-(ethylcarbamoylamino)-7-morpholino-1,3-benzothiazol-5-yl]pyrimidin-2-yl]piperidine-4-carboxylic acid] | ≤ 0.25 | 1 to 16 (≈ 1.85 to 29.6 µM) | 400 (≈ 741 µM) | 400 (≈ 741 µM) | 400 to 800 (≈ 741 to 1480 µM) | 400 to 800 (≈ 741 to 1480 µM) | 1 to 16 (≈ 1.85 to 29.6 µM) | > 16 |  | 
CCNC(=O)Nc1nc2cc(-c3cnc(N4CCC(O)C(C)(C(=O)O)C4)nc3)cc(-c3ccccn3)c2s1 (centres unmarked) [Compound 3] | 0.25 to 1 (≈ 0.469 to 1.87 µM) | 1 to 16 (≈ 1.87 to 30 µM) |  | 400 (≈ 750 µM) | 400 to 800 (≈ 750 to 1500 µM) |  | ≤ 0.25 | 1 to 16 (≈ 1.87 to 30 µM) |  | 
CCNC(=O)Nc1nc2cc(-c3cnc(N4CCC(C)(C(=O)O)CC4)nc3)cc(-c3ncco3)c2s1 [Compound 19] | ≤ 0.25 | 0.25 to 1 (≈ 0.493 to 1.97 µM) |  | ≥ 800 | > 800 |  | ≤ 0.25 | 1 to 16 (≈ 1.97 to 31.5 µM) |  | 

Next, values leading:

MIC [1] [µg/mL] | MIC [2] [µg/mL] | solubility at 24 h (physchem; [5]) [µg/mL] | solubility at 24 h (physchem; [6]) [µg/mL] | solubility at 24 h (physchem; [7]) [µg/mL] | solubility at 24 h (physchem; [8]) [µg/mL] | MIC [3] [µg/mL] | MIC [4] [µg/mL] | solubility at 24 h (physchem; [9]) [µg/mL] | solubility at 24 h (physchem; [10]) [µg/mL] | Compound
≤ 0.25 | ≤ 0.25 | ≥ 800 | ≥ 800 | > 800 | > 800 | ≤ 0.25 | 1 to 16 (≈ 1.81 to 28.9 µM) |  |  | CCNC(=O)Nc1nc2cc(-c3cnc(N4CCC(C)(C(=O)O)CC4)nc3)cc(-c3ncc(F)cc3F)c2s1 [Compound 54]
≤ 0.25 | 0.25 to 1 (≈ 0.469 to 1.87 µM) |  | 50 (≈ 93.7 µM) | 12.5 to 400 (≈ 23.4 to 750 µM) |  | ≤ 0.25 | 1 to 16 (≈ 1.87 to 30 µM) |  |  | CCNC(=O)Nc1nc2cc(-c3cnc(N4CCC(O)(C(=O)OC)CC4)nc3)cc(-c3ccccn3)c2s1 [Compound 173]
≤ 0.25 | ≤ 0.25 |  | 400 (≈ 729 µM) | 400 to 800 (≈ 729 to 1460 µM) |  | 1 to 16 (≈ 1.82 to 29.2 µM) | > 16 | ≥ 800 | > 800 | CCNC(=O)Nc1nc2cc(-c3cnc(N4CCC(CC)(C(=O)O)CC4)nc3)cc(-c3ccc(F)cc3)c2s1 [Compound 115]
≤ 0.25 | 0.25 to 1 (≈ 0.469 to 1.87 µM) |  | 400 (≈ 750 µM) | 400 to 800 (≈ 750 to 1500 µM) |  | ≤ 0.25 | 1 to 16 (≈ 1.87 to 30 µM) |  |  | CCNC(=O)Nc1nc2cc(-c3cnc(N4CCC(OC)(C(=O)O)CC4)nc3)cc(-c3ccccn3)c2s1 [Compound 132]
≤ 0.25 | ≤ 0.25 |  | 25 (≈ 45.5 µM) | 12.5 to 400 (≈ 22.7 to 728 µM) |  | ≤ 0.25 | 1 to 16 (≈ 1.82 to 29.1 µM) | ≥ 800 | > 800 | CCNC(=O)Nc1nc2cc(-c3cnc(N4CCC(C)(C(=O)O)CC4)nc3)cc(-c3ccc(F)c(C)n3)c2s1 [Compound 53]
≤ 0.25 | ≤ 0.25 | ≥ 800 | ≥ 800 | > 800 | > 800 | ≤ 0.25 | 0.25 to 1 (≈ 0.462 to 1.85 µM) |  |  | CCNC(=O)Nc1nc2cc(-c3cnc(N4CCC(C)(C(=O)O)CC4)nc3)cc(C#Cc3cccnc3)c2s1 [Compound 148]

— patent US9181234B2, “Antibacterial compounds” (priority 2010, dated 2015)
